pEC50: −log10 of the molar value.
Target: T1, human GLP-1R receptor (Homo sapiens, UniProt P43220)
T1 construct: expressed in transfected cells
Test: GLP-1R cell assay (cAMP TR-FRET, low expression CHO-K1_hGLP-1Rlow_clone10 cell line)
Format: cell-based
Conditions: CHO-K1_hGLP-1Rlow_clone10 cells, relative to control GLP-1 peptide agonist, read-out: GLP1 EC50
Protocol: Stable cell lines expressing high and low GLP-1R surface expression were generated in CHO-K1 cells transfected (Fugene 6) with a puromycin selectable DNA plasmid encoding human GLP-1R receptor (accession number: NM_002062.5) under control of an EF1A promoter. Transfected cells were seeded into 24-well plates (9,000 cells/well) containing complete medium and incubated in a humidified incubator at 37° C. with 5% carbon dioxide. After overnight incubation, medium was replaced with complete medium supplemented with puromycin (6 μg/mL) and refreshed every 2-3 days to select for stably transfected cells. Individual pools of selected cells were expanded prior to analysis for responsiveness to GLP-1 control peptide using a TR-FRET assay to detect cAMP (LANCE Ultra cAMP Assay, Perkin Elmer). Briefly, cells were collected in Versene solution, plated in 384-well plates (1,000 cells/well) and combined with serially diluted GLP-1R control peptide (10 nL) using an acoustic dispenser (ECHO). Plates were incubated for 30 minutes at 25° C. prior to the addition of EU-cAMP tracer (5 μL) and Ulight-anti-cAMP (5 μL) reagents to each well, followed by 15 minutes incubation at 25° C. TR-FRET signal was detected using an EnVision Multimode Plate Reader (excitation=320 nm; emission=615 and 655 nm). Dose-response curves were used to generate EC50 values as a measure of responsiveness to the GLP-1R control peptide. Selected cell lines were monitored for responsiveness over multiple passages to ensure stability. […] Briefly, GLP-1R expression was analyzed by flow cytometry using a fluorescein-labeled Exendin-4 peptide fluorescent probe (FLEX). Cells were harvested in Versene solution and washed 3-times with PBS+0.5% BSA before incubation with FLEX reagent (10 μM) for 2 hours at room temperature. After incubation, cells were washed 3-times in PBS+0.5% BSA before final resuspension in PBS prior to analysis by flow cytometry to measure FLEX mean fluorescence intensity (MFI) as a measure of GLP-1R expression on the cell surface.
For compound testing in the CHO-K1_hGLP-1Rlow_clone10 cell line, cells were seeded in 384-well plates (1,000 cells/well). Test compounds were serially diluted in DMSO (10-point, 3-fold dilution), added to wells using an ECHO dispenser (10 nL/well) and plates were centrifuged for 1 min and agitated for 2 min at room temperature prior to 30-minute incubation at 25° C. After incubation, Eu-cAMP (5 μL) and Ulight-anti-cAMP (5 μL) reagents were added to each well, followed by centrifugation for 1 minute, agitation for 2 minutes at room temperature, and final incubation of the plates at 25° C. for 15 minutes. Plates were read using an EnVision microplate reader (excitation=320 nm; emission=615 and 655 nm). Dose-response curves were generated from duplicate wells based on percent activation calculated relative to a control GLP-1 peptide agonist that was run in parallel. EC50 values were determined by fitting percent activation as a function of compound concentration using the Hill equation (XLfit).
The compounds tested were compound samples prepared according to the General Procedures described in the Examples section.

T1 sequence (P43220 24-463): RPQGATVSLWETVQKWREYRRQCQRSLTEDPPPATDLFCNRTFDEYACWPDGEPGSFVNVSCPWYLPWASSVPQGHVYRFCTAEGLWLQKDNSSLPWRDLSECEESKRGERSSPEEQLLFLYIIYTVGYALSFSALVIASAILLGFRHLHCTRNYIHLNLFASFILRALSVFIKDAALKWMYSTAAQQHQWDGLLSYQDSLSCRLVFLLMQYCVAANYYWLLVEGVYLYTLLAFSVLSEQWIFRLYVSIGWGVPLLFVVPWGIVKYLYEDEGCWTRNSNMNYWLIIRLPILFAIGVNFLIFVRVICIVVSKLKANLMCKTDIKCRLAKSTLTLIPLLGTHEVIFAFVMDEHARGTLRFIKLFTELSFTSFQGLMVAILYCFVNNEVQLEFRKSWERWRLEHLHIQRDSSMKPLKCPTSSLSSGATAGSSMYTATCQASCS

pEC50 | SMILES
7.82 | N#Cc1ccc(COc2cccc(C3CCN(Cc4nc5ccc(-c6nnn[nH]6)cc5n4C[C@@H]4CCO4)CC3)n2)c(F)c1 [Compound 8]
7.60 | N#Cc1ccc(COc2cccc(C3CCN(Cc4nc5ccc(-c6nc(=O)[nH]o6)cc5n4Cc4cncs4)CC3)n2)c(F)c1 [Compound 13, 3-fluoro-4-(((6-(1-((6-(3-oxo-2,3-dihydro-1,2,4-oxadiazol-5-yl)-1-(thiazol-5-ylmethyl)-1H-benzo[d]imidazol-2-yl)methyl)piperidin-4-yl)pyridin-2-yl)oxy)methyl)benzonitrile]

— patent US12024507B2, “Compounds as GLP-1R agonists” (Terns Pharmaceuticals, Inc., priority 2021, dated 2024)
